In a melting point compilation (Tetko et al.; mined from patent text by program, amines drawn as free bases though some values may be those of a salt):

melting point [°C] | Compound
168 to 170 | CON(C)CCNc1ncnc2nc[nH]c12
125 to 126 | c1ccc2c(c1)CCN2Nc1ccncc1
125 to 126 | COC1=C(OC)C(=O)c2cc(Sc3ccccc3Cl)ccc2C1=O
128 to 133 | CCS(=O)(=O)N[C@H](C(=O)NCCc1ccc(OC/C=C/c2ccccc2)c(OC)c1)C(C)C
54 | Brc1nnnn1Cc1ccccc1
147 to 153 | CC12C=CC(=O)C=C1CCC1C2CCC2(C)C1CCC21CC(=O)CO1 (stereo not given)
198 | C[C@H](NC(=O)c1cc(Cl)cnc1Oc1ccc(F)cc1)c1ccc(C(=O)O)cc1
47 | CC1(C)CCOC1=Cn1cncn1
99 | NCC1COc2cc(F)cc(-c3ccccc3C(F)(F)F)c2N1 (stereo not given)
77 to 78 | O=C(O)CCCCCOc1ccccc1OCc1ccccc1
217 to 219 | Nc1noc(-c2cc3c(Oc4ccc(Cl)cc4)cncc3s2)n1
190 to 191 | Cc1sc2c(Br)c3ccccc3c(-c3cc(Br)c(O)c(C4CCCC4)c3)c2c1C
145 | Cc1cccc(NC(=O)NCC(=O)N(CC(=O)OC(C)(C)C)c2ccccc2C(=O)N(C)c2ccccc2)c1
254 to 256 | CCCOc1ccc([N+](=O)[O-])cc1C1=NC(=O)C2=NC=NC2=N1
105 to 107 | CC(CN(C)C)CC(CNC(=O)N(CCCl)N=O)(c1ccccc1)c1ccccc1 (stereo not given)
230 to 232 | Cc1ccc(-c2cc(N3CCCCC3)c(C#N)c3c2-c2ccccc2C3=O)cc1
156 to 158 | CCC(CC)c1ccc(Cl)c2nc3n(c12)CCCCN3c1cccc2c1OC(F)(F)O2
163 to 165 | CCCCc1c(C(=O)O)c2ccccc2n1C
294 to 296 | Cc1nc(-n2ccc(O)cc2=O)sc1C(=O)NCc1ccc(F)c(F)c1
179 to 181 | COc1cc(Nc2ncc(-c3ccccc3N(C)C(=O)CN3CCOCC3)o2)ccc1-c1cnco1
86 to 88 | CCOC(=O)CS(=O)(=O)N(Cc1ccc(Cl)cc1)c1ccccc1CC(=O)OC
300 | O=c1c2c(-c3ccc(F)cc3)n[nH]c2c2cccnc2n1-c1ccccc1
145 to 146 | CC1(C(O)C(c2cccc(Cl)c2)n2ccnc2)COC1 (stereo not given)
278 to 279 | CCOC(=O)CN(C)CCCNC(=O)C=CC(=O)Nc1ccc2ncnc(Nc3cccc(Br)c3)c2c1

melting point [°C] | Compound
104 to 105 | COc1cc(/C=C(\C(=O)NCCCCCC(=O)NO)c2ccc(F)cc2)cc(OC)c1
220 | Cn1nnc2cc(OC3SCC(O)C(O)C3O)ccc21 (stereo not given)
208 to 228 | O=C(CNC(=O)C(Cc1ccccc1)P(=O)(O)O)OCc1ccccc1 (stereo not given)
98 to 101 | O=C(O)CCc1cc(OCc2ccccc2)nn1Cc1ccc(Cl)cc1Cl
178 to 179 | COc1cc(C2=CCCCC2)c(Cl)cc1C(=O)N1Cc2ccc(C(=O)N(C)Cc3cccnc3)n2Cc2ccccc21
104 to 110 | NC(=S)NN=C(CNC(=O)C1CCCCC1)c1ccccc1
112 to 114 | COc1cccc(Oc2cccnc2C#N)c1
172 to 173 | C=C(c1ccc(C(C)C)cc1)c1c(C)c(NC(=O)CCCC)c(C)c2c1OCC2
79 to 81 | Nc1cc(C(=O)OCc2ccccc2)ccc1OCc1ccccc1
175 to 177 | COCC1COc2cc3ncnc(Nc4cccc(I)c4)c3cc2O1 (stereo not given)
95 to 96 | CN1C(=O)CN(c2cccc(O)c2)NC1=O
108 to 109 | O=C(O)C1CC(=O)N(c2cc(C(F)(F)F)cc(C(F)(F)F)c2)C1 (stereo not given)
104 to 106 | CNC(=O)C(C)(C)CCCCC1(CCCCC(C)(C)C(=O)NC)SCCCS1
108 to 110 | CCCCc1noc(-c2cccc(NC(=O)N(C)C)c2)n1
80.2 | C=CCCC(C#N)(C#N)Cc1ccc(OC(C)=O)cc1
211 to 214 | O=C(NNS(=O)(=O)c1ccccc1)c1ccc2ncccc2c1
168 to 170 | N=C(Nc1ccc(Cl)cc1)Nc1ncccc1OCc1c(F)cccc1Cl
> 320 | O=C1c2[nH]c3cc(-c4ccccc4)nn3c(=O)c2CCN1C1CCCCC1
145 to 147 | O=C(Oc1ccccc1O)c1cc(Br)c(Cl)s1
219 to 222 | CC(C)(O)CCc1cc(F)c2ncc(C(=O)NCc3ccc(Cl)cc3)c(O)c2c1
163 to 164 | CCOC(=O)c1ccc(-c2csc(-c3ccc(C(F)(F)F)cc3)n2)cc1
55 to 56 | CCCCCCCCCCCCCCc1ccc(OCC(O)CO)c(CC)c1 (stereo not given)
271 | CCOC(=O)c1c[nH]c2ccc(C(=O)c3c(C)c(OC)c4ccccn34)cc2c1=O
137 to 138 | CC(C)CN1CCc2ccc(C(=O)CCC(=O)N3CCC(c4ccc(Cl)cc4)CC3)cc2CC1

melting point [°C] | Compound
111 to 112 | Cc1c(F)cccc1CC(=Cc1ccccc1)[N+](=O)[O-]
101 to 102 | CN=C(NC)Nc1ccccc1-c1ccccc1
164 | COc1ccc(-c2ccc(OC(C)CC(C)Oc3ccc(-c4ccc(OC)cc4)cc3)cc2)cc1 (stereo not given)
288 to 290 | CN1C(=O)CCCc2cc(Nc3ncc(Cl)c(Nc4ccc(N5CCOCC5)cc4C(N)=O)n3)ccc21
128 to 129 | CC(=O)OC[C@H]1O[C@@H](c2nc(C(N)=O)c(N)[nH]2)[C@H](OC(C)=O)[C@@H]1OC(C)=O
71 to 72 | CC(C)C1NC(=O)OC1C(F)(F)F (stereo not given)
106 to 109 | CCOP(=O)(CC(=O)Nc1cc2c(Nc3ccc(OCc4cccc(Cl)c4)c(Cl)c3)ncnc2cn1)OCC
170 to 172 | O=c1cc(N2CCOCC2)oc2cc(OCc3ccccc3)ccc12
129 to 131 | CC(Oc1ccc(Oc2ncc(Cl)cc2F)cc1)C(=O)NC=C(C#N)C#N (stereo not given)
241 to 242 | O=C(O)c1ccccc1Sc1cc(Cl)ccc1C(=O)O
163 to 164 | CC[C@H](C)[C@H](NC(=O)OCc1ccccc1)C(=O)N[C@@H](C=O)Cc1c[nH]c2ccccc12
216 to 218 | NC(=O)c1cc(-n2cncn2)ccc1N
98.1 | c1ccc(C(c2ccc3nccnc3c2)n2cnnc2)cc1 (stereo not given)
175 to 180 | Cc1cc(C(=O)CCc2cc(-c3ccc(C(F)(F)F)cc3)nn2Cc2ccccc2)ccc1OCC(=O)O
99 to 100 | COc1ccc(CCNCC(O)c2ccc(C)cc2)cc1OC (stereo not given)
113 to 116 | O=[N+]([O-])c1ccc(Cl)c(C=NNc2c(Cl)cc(Cl)cc2Cl)c1
107 | C#CCOc1cc(Oc2ccc(Cl)cc2Cl)ncn1
98.3 to 99.5 | O=C(CCS)Nc1ccc(Nc2ccccc2)cc1
217 to 218 | CC1(C(=O)N2CCN(S(=O)(=O)c3ccc(Br)cc3)CC2)CCN(c2ccncn2)CC1
139 to 142 | Cn1cc(-c2cccc(C(F)(F)F)c2)c(=O)c(-c2ccc(Cl)cc2Cl)c1
223 to 224 | Cc1ccc(-n2c(-c3ccc(C#C[Si](C)(C)C)cc3)ccc2-c2ccc(C#C[Si](C)(C)C)cc2)cc1
77 to 79 | CC(=O)c1nn(-c2c(Cl)cc(C(F)(F)F)cc2Cl)c(N)c1S(C)(=O)=O
